{"source": "patent US8269012B2", "about": "“Aminopyrazole triazolothiadiazole inhibitors of c-met protein kinase” (Vertex Pharmaceuticals Incorporated, priority 2009, dated 2012)", "key": {"[1]": {"test_system": "SNU-5 gastric cancer cells", "assay": "Inhibition of tumor growth of subcutaneously implanted SNU-5 cells in SCID mice", "assay_type": "in vivo", "conditions": "all three dose levels tested (3, 10, 30 mg/kg/day)", "method": "Compound 3 was investigated for its ability to inhibit tumor growth of subcutaneously implanted SNU-5 gastric cancer cells in severe combined immunodeficient (SCID) mice. SNU-5 cells (CRL-5973, American Type Culture Collection, Manassas, Va.) were cultured in ISCOVE's Modified Dulbecco's Medium (IMDM) (Invitrogen, Carlsbad, Calif.) supplemented with 10% fetal bovine serum (FBS) (Hyclone, Logan, Utah), 100 units/mL of penicillin, […] of streptomycin (Invitrogen, Carlsbad, Calif.), and 2 mM L-glutamine. Cells were cultured for fewer than 4 passages prior to implantation. Female SCID mice (Fox Chase SCID, CB-17, mice weighing 17 to 19 g obtained from Charles River Laboratories, Wilmington, MA) were injected subcutaneously (s.c.) with 5×10^6 SNU-5 cells into the right dorsal axillary region on Day 0. […]\nCompound 3, formulated in a vehicle containing 30% (w/v) Propylene Glycol and 10% Solutol (Sigma-Aldrich, St Louis, Mo.) as a suspended homogenous form, was administered orally (p.o.) once daily (QD) at total daily doses of 3, 10, and 30 mg/kg/day for 14 days. Tumor volumes (calculated using the ellipsoid formula, […], where length and width represented the largest and smallest dimensions of the tumor, respectively) were recorded for two weeks after the initiation of treatment. […]"}, "A549HGF cells": {"test_system": "A549HGF cells", "assay": "Inhibition of tumor metastasis to the lungs, subcutaneous A549HGF tumors in SCID mice", "assay_type": "in vivo", "method": "Compound 3 was investigated for its ability to inhibit the metastasis of subcutaneously implanted tumors to the lungs of severe combined immunodeficient (SCID) mice. Accordingly, A549 cells (A549HGF-1m1115, transfected with hepatocyte growth factor, luciferase, and green fluorescent protein) were cultured in RPMI1640 medium (Invitrogen, Carlsbad, Calif.) supplemented with 10% fetal bovine serum (FBS) (Hyclone, Logan, Utah), 100 units/mL of penicillin, […] of streptomycin (Invitrogen, Carlsbad, Calif.), and 2 mM L-glutamine for fewer than 4 passages prior to implantation. […]\nFemale SCID mice were injected subcutaneously (s.c.) with 5×10^6 A549HGF cells into the right dorsal axillary region on Day 0. […] Ectopic tumor measurements were recorded twice a week for 3 weeks after the initiation of treatment.\nIn order to evaluate the anti-metastatic potential of Compound 3, at the termination of the study all animal lung tissues were harvested and lysed by homogenization for ex vivo quantification via luciferase luminescence."}}}
{"smiles": "Cn1cc(Nc2nn3c(C(F)(F)c4ccc5ncccc5c4)nnc3s2)cn1", "note": "[Compound 3, 3-(Difluoro(quinolin-6-yl)methyl)-N-(1-methyl-1H-pyrazol-4-yl)-[1,2,4]triazolo[3,4-b][1,3,4]thiadiazol-6-amine]", "values": [{"measurement": "anti-tumor activity", "setting": "[1]", "result": "significant and dose-dependent anti-tumor activity"}, {"measurement": "formation of lung metastases", "setting": "A549HGF cells; 60 mg/kg/day compared to vehicle controls, p<0.02", "result": "significantly inhibits the formation of lung metastases"}, {"measurement": "change in primary A549 tumor cell growth at the site of implantation vs vehicle", "setting": "A549HGF cells; 30 or 60 mg/kg/day p.o. QD, 22 days", "result": "no significant change"}]}
